Assay results taken from US20080311589A1, “METHOD OF HIGH-THROUGHPUT SCREENING OF MOLECULES AND COMPOUNDS FOR THEIR EFFECTS ON BIOLOGICAL AND CHEMICAL PROCESSES” (priority 1999, published 2008).
“Also recorded” adds a separate entry of the source.

Legend:
[1] = tested on: BS-C-1 cells; experiment: fluorescence microscopy and live imaging of BS-C-1 cells; type: cell-based, monkey
[2] = molecular target: T1, conventional kinesin (Homo sapiens, UniProt P33176); experiment: microtubule gliding driven by conventional kinesin; type: biochemical; conditions: 200 μM
T1 sequence (P33176 1-963): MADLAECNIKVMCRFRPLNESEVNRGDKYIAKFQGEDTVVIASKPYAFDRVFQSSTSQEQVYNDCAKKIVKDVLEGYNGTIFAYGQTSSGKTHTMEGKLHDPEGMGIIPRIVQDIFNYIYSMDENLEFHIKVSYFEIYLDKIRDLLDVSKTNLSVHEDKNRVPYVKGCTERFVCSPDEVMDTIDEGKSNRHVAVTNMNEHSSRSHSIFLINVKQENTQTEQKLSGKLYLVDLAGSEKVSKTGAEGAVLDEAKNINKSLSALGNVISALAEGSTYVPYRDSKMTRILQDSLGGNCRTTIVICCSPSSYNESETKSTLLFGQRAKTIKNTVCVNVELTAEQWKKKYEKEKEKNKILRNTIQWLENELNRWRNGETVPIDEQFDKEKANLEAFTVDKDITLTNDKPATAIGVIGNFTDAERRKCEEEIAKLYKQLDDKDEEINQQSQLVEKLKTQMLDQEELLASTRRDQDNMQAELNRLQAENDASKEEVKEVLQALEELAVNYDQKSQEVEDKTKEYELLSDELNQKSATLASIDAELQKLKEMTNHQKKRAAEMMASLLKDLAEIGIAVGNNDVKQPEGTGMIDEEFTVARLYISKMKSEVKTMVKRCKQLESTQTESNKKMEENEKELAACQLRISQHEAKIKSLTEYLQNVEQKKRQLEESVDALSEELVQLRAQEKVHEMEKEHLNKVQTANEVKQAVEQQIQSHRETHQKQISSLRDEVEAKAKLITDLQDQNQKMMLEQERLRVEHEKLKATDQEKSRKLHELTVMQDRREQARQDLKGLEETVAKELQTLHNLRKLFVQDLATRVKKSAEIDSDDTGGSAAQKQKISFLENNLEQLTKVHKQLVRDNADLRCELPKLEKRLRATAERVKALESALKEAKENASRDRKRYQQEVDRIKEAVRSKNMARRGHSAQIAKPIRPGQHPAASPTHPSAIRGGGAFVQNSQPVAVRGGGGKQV
Method: FIG. 26. […] Conventional kinesin motility was not inhibited in the same assay. A. Model for spindle bipolarity. Plus-end directed motors, such as Eg5 are thought to be involved in the separation of the centrosomes and the establishment of a symmetric spindle axis. B. Inhibition of the kinesin Eg5 results in monastrol spindles. Microtubules, green; chromosomes, blue. Eg5 is depicted as homotetramer (9). C. […] After imaging Eg5 driven microtubule gliding in the presence of monastrol (200 μM), the same assay chamber was depleted of compound and the microtubule gliding recorded (Washout). […] D. Chemical structures of monastrol and DHP2.
Eg5 is a member of the kinesin superfamily, which includes over 100 homologous proteins involved in organelle transport, membrane organization, and assembly and maintenance of mitotic spindles (Vale et al., Annu. Rev. Cell. Dev. Biol. 13:745, 1997). To test whether monastrol affects other motor proteins, we first assayed its ability to inhibit microtubule gliding driven by conventional kinesin in vitro. The N-terminal motor domain of conventional kinesin shares 33% sequence identity with the Eg5 motor domain (Kapoor et al., Proc. Natl. Acad. Sci. USA, 1999). […] We next investigated whether monastrol disturbs the distribution of lysosomes or the Golgi apparatus in vivo. […]

## monastrol
[1]
  mitotic cells displaying the monoastral phenotype: Over 90%
[1]; BS-C-1 cells, 1A at 40 μM for 4 hours
  microtubule, spindle and chromosome phenotype: the bipolar spindle was replaced with a monoastral microtubule array surrounded by a ring of chromosomes
[1]; live images of BS-C-1 cells
  chromosome attachment to microtubules: does not inhibit chromosome attachment to microtubules
[2]
  inhibition of microtubule gliding driven by conventional kinesin: no inhibition; also recorded: does not inhibit
